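Results reflect a 48-hour exposure of cells in 96-well plates to compound at five concentrations. TGI: concentration producing complete growth inhibition.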
Assays:
Assay in all cases: DTP human tumour cell line panel, 48 h
MOLT-4 leukemia = test system: MOLT-4 leukemia
UACC-257 melanoma = test system: UACC-257 melanoma
SK-OV-3 ovarian = test system: SK-OV-3 ovarian
SF-539 CNS = test system: SF-539 CNS
OVCAR-3 ovarian = test system: OVCAR-3 ovarian
A498 renal = test system: A498 renal
IGROV1 ovarian = test system: IGROV1 ovarian
SR leukemia = test system: SR leukemia
MDA-N = test system: MDA-N
M14 melanoma = test system: M14 melanoma
DU-145 prostate = test system: DU-145 prostate
SK-MEL-2 melanoma = test system: SK-MEL-2 melanoma
UACC-62 melanoma = test system: UACC-62 melanoma

Structure (SMILES) | TGI (MOLT-4 leukemia) | TGI (UACC-257 melanoma) | TGI (SK-OV-3 ovarian) | TGI (SF-539 CNS) | TGI (OVCAR-3 ovarian) | TGI (A498 renal) | TGI (IGROV1 ovarian) | TGI (SR leukemia) | TGI (MDA-N) | TGI (M14 melanoma) | TGI (DU-145 prostate) | TGI (SK-MEL-2 melanoma) | TGI (UACC-62 melanoma)
COC1(OC)c2occc2C(=N)c2ccc(=O)oc21 | > 100 µM | > 100 µM | > 100 µM | > 100 µM | > 100 µM | > 100 µM | > 100 µM | > 100 µM | > 100 µM | > 100 µM | > 100 µM | > 100 µM | > 100 µM
CCCCCCCCCCCCCCCCCCNc1ccn(C2OC(COP(=O)(O)OCC3OC(n4ccc(N)nc4=O)C(O)C3O)C(O)C2O)c(=O)n1 (configuration not stated) | > 70.6 µM | > 100 µM | > 100 µM | > 100 µM | > 100 µM | > 100 µM | > 100 µM | > 100 µM | > 100 µM | > 100 µM | > 100 µM | > 100 µM | > 100 µM
O=C(Nn1c(-c2ccccc2)nc2ccccc2c1=O)c1ccc(Cl)cc1 | > 100 µM | > 100 µM | > 100 µM | > 100 µM | > 100 µM | > 100 µM | > 100 µM | > 100 µM | > 100 µM | > 100 µM | > 100 µM | – | > 100 µM
C=CCC(CCC(C)=O)(C(=O)OCC)C(=O)OCC | > 100 µM | > 100 µM | > 100 µM | > 100 µM | > 100 µM | > 100 µM | > 100 µM | > 100 µM | > 100 µM | > 100 µM | > 100 µM | > 100 µM | > 100 µM
COc1ccc(-c2oc3cc(-c4cc5oc(-c6ccc(OC)cc6)c(-c6ccc(OC)cc6)c5cc4OC)c(OC)cc3c2-c2ccc(OC)cc2)cc1 | > 100 µM | > 100 µM | > 100 µM | > 100 µM | > 100 µM | > 100 µM | > 100 µM | > 100 µM | > 100 µM | > 100 µM | > 100 µM | – | > 100 µM
CCN1CCC(O)(c2ccc([N+](=O)[O-])cc2)C(C(=O)c2ccc([N+](=O)[O-])cc2)C1 (configuration not stated) | 58 µM | 33.7 µM | > 100 µM | 30.7 µM | 31.5 µM | 46.2 µM | 35.5 µM | > 100 µM | 39.1 µM | 42.1 µM | 32.3 µM | > 100 µM | 33 µM
COC(=O)/C=C(\C(=O)OC)c1cc(C)c2cc(C(C)C)ccc(C)c1-2 | > 100 µM | – | > 100 µM | > 100 µM | > 100 µM | > 100 µM | > 100 µM | > 100 µM | 46.3 µM | > 100 µM | > 100 µM | > 100 µM | > 100 µM
Cc1nc2sc3cccc(Cl)c3n2c(=O)c1N=Nc1ccc(Cl)cc1 | > 100 µM | > 100 µM | > 100 µM | > 100 µM | > 100 µM | 67.6 µM | > 100 µM | > 100 µM | > 100 µM | > 100 µM | > 100 µM | > 100 µM | –
O=C(NCCC1CNc2ccccc21)OCc1ccccc1 (configuration not stated) | > 100 µM | > 100 µM | > 100 µM | – | > 100 µM | > 100 µM | > 100 µM | > 100 µM | > 100 µM | > 100 µM | > 100 µM | > 100 µM | > 100 µM
COC(=O)c1c(C)cccc1/C=C1\Cc2ccc(C)c(C)c2C1=O | > 100 µM | > 100 µM | – | > 100 µM | > 100 µM | > 100 µM | > 100 µM | > 100 µM | > 100 µM | > 100 µM | > 100 µM | > 100 µM | > 100 µM
O=c1[nH]c(N/N=C\C(O)C(O)C(O)C(O)CO)nc2ccccc12 (configuration not stated) | > 100 µM | > 100 µM | > 100 µM | > 100 µM | > 100 µM | > 100 µM | > 100 µM | > 100 µM | > 100 µM | > 100 µM | > 100 µM | > 100 µM | > 100 µM
Cc1ccc(N=N/C(=N/NC(=O)c2ccccc2)c2ccc(N(CCC#N)CCC#N)cc2C)cc1 | > 100 µM | > 100 µM | > 100 µM | 64.7 µM | > 100 µM | 88.1 µM | > 100 µM | > 100 µM | > 100 µM | > 100 µM | > 100 µM | > 100 µM | > 100 µM
CSC(=O)/C=C1\SS/C(=C\C(=O)SC)S1 | > 100 µM | 11.3 µM | – | 6.93 µM | 11.2 µM | 21.5 µM | 11.6 µM | > 100 µM | 8.37 µM | 5.24 µM | 15.7 µM | 4.93 µM | 2.87 µM

Source: PubChem BioAssay (NCI)
